Experimental data: patent US6475751B2, “Scintillation proximity assay for type II fatty acid biosynthetic enzymes” (Virginia Commonwealth University, priority 2000, dated 2002)
Read-outs that look alike come from different tables or passages of the source.

What was measured:
[1] = biological target: T1, S. glaucescens His6-KASIII (Streptomyces glaucescens, UniProt Q54206); test: KASIII scintillation proximity assay (SPA); assay type: biochemical
T1 construct: His6 (N); made in house; host or cells: Escherichia coli BL21 (DE3 pLysE)/pLH14
T1 sequence (Q54206 1-333): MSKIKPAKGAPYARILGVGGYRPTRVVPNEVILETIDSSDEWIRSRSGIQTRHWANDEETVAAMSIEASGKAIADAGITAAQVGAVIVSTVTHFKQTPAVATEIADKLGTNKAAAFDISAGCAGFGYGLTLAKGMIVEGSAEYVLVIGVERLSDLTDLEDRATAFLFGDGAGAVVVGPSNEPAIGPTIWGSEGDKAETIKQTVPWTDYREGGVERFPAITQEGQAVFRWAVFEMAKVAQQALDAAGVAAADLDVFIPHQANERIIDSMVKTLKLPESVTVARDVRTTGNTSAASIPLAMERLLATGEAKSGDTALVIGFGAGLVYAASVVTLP
Method: (§1) The standard reaction mixture contained the following components in a final volume of […]: S. glaucescens His6-KASIII […], 100 mM imidazole, pH 7.0, 2.6 μM BMACP (MACP), [^3H] acetyl-CoA 0.6 μM (0.24 μCi, specific activity 20 Ci/mmol). The reaction was initiated by adding [^3H] acetyl-CoA and incubated at 30 ° C. for 10 minutes.
(§2) For the KASIII SPA, the reaction was terminated by the sequential addition of 100 μl of 100% ethanol (which denatures the KASIII) and 50 μl of the SPA bead solution (10 mg/ml). The mixture was then incubated for 2 hr at 23° C. with gentle shaking. After allowing the beads to settle the sealed OptiPlate (Packard, Meriden, Conn.) was counted using a TopCount (Packard) set up in SPA mode. A background signal was obtained by carrying out the assay in absence of KASIII. This background signal was subtracted from KASIII SPA signals.
(§3) In all inhibitor studies, the inhibitor was first dissolved in DMSO and preincubated with enzyme for 15 minutes at 23° C., prior to addition of substrate. The final DMSO concentration in each of these assays remained below 1%.
The apparent Km for MACP with the S. glaucescens KASIII was determined using the standard TCA precipitation assay with the following modifications: tritiated acetyl-CoA at a final concentration of 13.3 μM (0.4 μCi, specific activity 1 Ci/mmol ) was incubated at 30° C. for 5 min with various concentrations of MACP (0.39-18.7 μM) in a volume of 30 μl. The apparent Km for BMACP with the S. glaucescens KASIII was determined in SPA format. Tritiated acetyl-CoA at a final concentration of 7.5 μM (0.6 μCi, specific activity 4 Ci/mmol) was incubated at 30° C. for 9 min with various BMACP concentrations (0.28 to 9 μM).

[2] = biological target: T1, S. glaucescens His6-KASIII; test: KASIII TCA precipitation assay; assay type: biochemical
Method: as §1
(§4) In the KASIII TCA precipitation assay, the reaction was quenched by the addition of 200 μl ice cold 10% TCA, incubated on ice for 10 min and centrifuged at 13,000 g for 10 min. The supernatant was discarded and the pellet was resuspended with another 200 μl of cold TCA and centrifuged. The pellet bound ^3H labeled product was dissolved in 2% SDS, 20 mM NaOH and quantitated by liquid scintillation counting. The Escherichia coli KASIII assay was performed in the same manner except that the incubation time was reduced to 2 minutes, and 0.13 μg of protein and 0.4 μM MACP (BMACP) were used in the assay.
In all inhibitor studies, the inhibitor was first dissolved in DMSO and preincubated with enzyme for 15 minutes at 23° C., prior to addition of substrate. The final DMSO concentration in each of these assays remained below 1%. […]

[3] = biological target: T1, S. glaucescens His6-KASIII; settings: cited from earlier work
E. coli KASIII [4] = biological target: T2, E. coli KASIII (Escherichia coli, UniProt P0A6R0); test: KASIII scintillation proximity assay (SPA); assay type: biochemical
Method: as §1, §2
as §4, with “The Escherichia coli KASIII assay was performed in the same manner except that the incubation time was reduced to 2 minutes, and 0.13 μg of protein and 0.4 μM MACP (BMACP) were used in the assay.” left out

E. coli KASIII [5] = biological target: T2, E. coli KASIII; test: KASIII TCA precipitation assay; assay type: biochemical
Method: as §1, §4, §3

T2 sequence (P0A6R0 whole entry): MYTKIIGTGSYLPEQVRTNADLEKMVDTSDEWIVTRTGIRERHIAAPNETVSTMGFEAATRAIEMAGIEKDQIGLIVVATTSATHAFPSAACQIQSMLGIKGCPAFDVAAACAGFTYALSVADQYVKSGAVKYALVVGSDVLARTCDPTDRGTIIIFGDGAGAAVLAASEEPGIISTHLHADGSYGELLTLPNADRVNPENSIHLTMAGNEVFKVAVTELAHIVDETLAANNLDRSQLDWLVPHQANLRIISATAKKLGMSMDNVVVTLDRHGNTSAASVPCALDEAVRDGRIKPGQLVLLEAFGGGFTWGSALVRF

NC(=O)CI [iodoacetamide, Iodoacetamide, reference compound]
IC50 [1]: 15 ± 1 µM | IC50 ([2]; TCA precipitation assay, inhibitor preincubated with enzyme 15 minutes at 23° C.): 25 ± 3 µM

CC(=O)SCCNC(=O)CCNC(=O)[C@H](O)C(C)(C)COP(=O)(O)OP(=O)(O)OC[C@H]1O[C@@H](n2cnc3c(N)ncnc32)[C@H](O)[C@@H]1OP(=O)(O)O [acetyl-CoA]
Km ([3]; previous analyses using a TCA-precipitation assay, read-out: Km for acetyl-CoA): 3 µM | Km ([1]; SPA, suggested by linear relationship over 0-1.6 μM substrate, read-out: Km for acetyl-CoA): > 1.6 µM

C[S+](C)[O-] [DMSO, Dimethyl Sulfoxide]
reduction in the SPA signal ([1]; DMSO concentration of 10% v/v): ~50% | decrease in the SPA signal ([1]; DMSO concentrations below 1.5% v/v): no significant decrease

C=C/C(C)=C/[C@@]1(C)SC(=O)C(C)=C1O [thiolactomycin]
IC50 (E. coli KASIII [4]): 124 ± 14 µM | IC50 (E. coli KASIII [5]): 160 ± 14 µM

MACP: Malonyl-Acyl Carrier Protein generated from Escherichia coli ACP and malonyl-CoA; KASIII substrate
Km ([2]; TCA-based assay, 13.3 μM tritiated acetyl-CoA, 30° C., 5 min, read-out: Km (apparent) for substrate): 6.1 ± 0.4 µM

BMACP: Biotinylated Malonyl-Acyl Carrier Protein, prepared by biotinylation of MACP using NHS-biotin; KASIII substrate
Km ([3]; previously determined using a TCA precipitation assay, read-out: Km previously determined): 3.7 µM | Km ([1]; SPA format, 7.5 μM tritiated acetyl-CoA, 30° C., 9 min, read-out: Km (apparent) for substrate): 7.2 ± 2.6 µM
